Measurements taken from patent US6737383B1, “Herbicidal oxadiazolidines” (priority 1999, dated 2004).

How the values were obtained:
[1] = test system: pigweed; assay: Test B pre/postemergence pigweed; assay type: in vivo, Amaranthus retroflexus
Procedure, shortened: (§1)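 Test chemicals in a non-phytotoxic solvent mixture with surfactant were sprayed preemergence onto planted seeds and postemergence onto plants 2 to 18 cm tall (1- to 4-leaf stage). After twelve to sixteen days in a greenhouse, injury was visually rated against untreated controls from 0 (no effect) to 10 (complete control).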

[2] = test system: cocklebur; assay: Test B pre/postemergence cocklebur; assay type: in vivo, Xanthium strumarium
Procedure, shortened: as §1

[3] = test system: wild oat; assay: Test B pre/postemergence wild oat; assay type: in vivo, Avena fatua; conditions: for Plant response rating, Wild oats: Rate 250 g/ha
Procedure, shortened: as §1

[4] = test system: bamyardgrass; assay: Test B flood test barnyardgrass; assay type: in vivo, Echinochloa crus-galli
Procedure, shortened: (§2)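 Read-out is a visual response score from 0 (no effect) to 10 (complete control), assigned by comparison with untreated controls. Treatment was applied at the 2-leaf stage, and plants stayed in the greenhouse for twelve to sixteen days before scoring.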

[5] = test system: crabgrass; assay: Test B pre/postemergence crabgrass; assay type: in vivo, Digitaria sanguinalis
Procedure, shortened: as §1

[6] = test system: purple nutsedge; assay: Test B pre/postemergence purple nutsedge; assay type: in vivo, Cyperus rotundus
Procedure, shortened: as §1

[7] = test system: rice; assay: Test B flood test rice; assay type: in vivo, Oryza sativa
Procedure, shortened: as §2

[8] = test system: blackgrass; assay: Test B pre/postemergence blackgrass; assay type: in vivo, Alopecurus myosuroides
Procedure, shortened: as §1

[9] = test system: morningglory; assay: Test B pre/postemergence morningglory; assay type: in vivo, Ipomoea hederacea
Procedure, shortened: as §1

[10] = test system: bedstraw; assay: Test B pre/postemergence bedstraw; assay type: in vivo, Galium aparine
Procedure, shortened: as §1

[11] = test system: sugar beet; assay: Test B pre/postemergence sugar beet; assay type: in vivo, Beta vulgaris; conditions: for Plant response rating, Sugarbeets: Rate 250 g/ha
Procedure, shortened: as §1

[12] = test system: giant foxtail; assay: Test B pre/postemergence giant foxtail; assay type: in vivo, Setaria faberii
Procedure, shortened: as §1

[13] = test system: surinam grass; assay: Test B pre/postemergence surinam grass; assay type: in vivo, Brachiaria decumbens
Procedure, shortened: as §1

[14] = test system: wheat; assay: Test B pre/postemergence wheat; assay type: in vivo, Triticum aestivum; conditions: for Plant response rating, Wheat: Rate 250 g/ha
Procedure, shortened: as §1

[15] = test system: corn; assay: Test B pre/postemergence corn; assay type: in vivo, Zea mays
Procedure, shortened: as §1

[16] = test system: rape; assay: Test B pre/postemergence rape; assay type: in vivo, Brassica napus
Procedure, shortened: as §1

[17] = Postemergence, Rate 125 g/ha, scale of 0 to 10 where 0 is no effect and 10 is complete control
[18] = Preemergence, Rate 62 g/ha, scale 0 to 10 (0 no effect, 10 complete control)
[19] = Preemergence, Rate 125 g/ha, scale 0 to 10 (0 no effect, 10 complete control)
[20] = Preemergence, Rate 250 g/ha, scale of 0 to 10 where 0 is no effect and 10 is complete control
[21] = Preemergence, Rate 500 g/ha, scale 0 to 10 (0 no effect, 10 complete control)
[22] = Rate 62 g/ha, Postemergence, scale of 0 to 10 where 0 is no effect and 10 is complete control
[23] = Rate 500 g/ha, Postemergence, scale 0 to 10, 0 no effect, 10 complete control
[24] = Postemergence, Rate 250 g/ha, scale 0 to 10, 0 no effect, 10 complete control
[25] = Preemergence, Rate 125 g/ha, 0 is no effect, 10 is complete control
[26] = Preemergence, scale of 0 to 10 where 0 is no effect and 10 is complete control
[27] = Postemergence, scale 0 to 10, 0 is no effect, 10 is complete control
[28] = Postemergence, Rate 62 g/ha, scale 0 to 10, 0 is no effect, 10 is complete control
[29] = Rate 250 g/ha, headed Pre-emergence (flood test species), scale 0 to 10 (0 no effect, 10 complete control)
[30] = Rate 500 g/ha, headed Pre-emergence (flood test species), scale 0 to 10 (0 no effect, 10 complete control)
[31] = Rate 500 g/ha, listed under Postemergence (flood test species), scale 0 to 10, 0 no effect, 10 complete control
[32] = Rate 1000 g/ha, Pre-emergence (as headed), scale 0 to 10
[33] = Rate 125 g/ha, Postemergence, scale 0 to 10, 0 no effect, 10 complete control

Structure (SMILES): CC(C)N(C(=O)n1oc(=O)n(C(C)C)c1=O)c1ccc(F)cc1F [Compound 109]
- Redroot pigweed plant response rating [1, 17]: 5
- Redroot pigweed plant response rating [1, 18]: 10
- Plant response rating, Redroot pigweed [1, 19]: 10
- Plant response rating, Redroot pigweed [1, 20]: 10
- Redroot pigweed plant response rating [1, 21]: 10
- Redroot pigweed plant response rating [1, 22]: 3
- Plant response rating, Redroot pigweed ([1]; Rate 250 g/ha, Postemergence, scale 0 to 10, 0 is no effect, 10 is complete control): 8
- Redroot pigweed plant response rating [1, 23]: 8
- Cocklebur plant response rating [2, 17]: 3
- Cocklebur plant response rating [2, 24]: 4
- Cocklebur plant response rating [2, 18]: 0
- Plant response rating, Cocklebur [2, 19]: 0
- Plant response rating, Cocklebur [2, 20]: 0
- Cocklebur plant response rating [2, 21]: 5
- Cocklebur plant response rating [2, 22]: 2
- Cocklebur plant response rating [2, 23]: 5
- Wild oats plant response rating [3, 17]: 0
- Wild oats plant response rating [3, 18]: 8
- Wild oats plant response rating (0 to 10 scale) [3, 25]: 10
- Plant response rating, Wild oats [3, 26]: 10
- Wild oats plant response rating [3, 21]: 10
- Wild oats plant response rating [3, 22]: 0
- Plant response rating, Wild oats [3, 27]: 4
- Wild oats plant response rating [3, 23]: 7
- Barnyardgrass plant response rating [4, 28]: 0
- Barnyardgrass plant response rating ([4]; Rate 125 g/ha, Postemergence section (flood test species), scale 0 to 10, 0 no effect, 10 complete control): 0
- Barnyardgrass plant response rating [4, 29]: 0
- Plant response rating, Barnyardgrass [4, 30]: 0
- Barnyardgrass plant response rating [4, 31]: 0
- Barnyardgrass plant response rating [4, 32]: 8
- Barnyardgrass plant response rating ([4]; Rate 2000 g/ha, Pre-emergence (as headed), scale 0 to 10, 0 no effect, 10 complete control): 9
- Barnyardgrass plant response rating ([4]; flood test, listed under Postemergence, Rate 250 g/ha, scale 0 to 10, 0 no effect, 10 complete control): 0
- Crabgrass plant response rating [5, 17]: 9
- Crabgrass plant response rating [5, 24]: 9
- Crabgrass plant response rating [5, 18]: 10
- Plant response rating, Crabgrass [5, 19]: 10
- Plant response rating, Crabgrass [5, 20]: 10
- Crabgrass plant response rating [5, 21]: 10
- Crabgrass plant response rating [5, 22]: 8
- Crabgrass plant response rating [5, 23]: 9
- Nutsedge plant response rating [6, 17]: 0
- Nutsedge plant response rating [6, 24]: 0
- Nutsedge plant response rating [6, 18]: 0
- Plant response rating, Nutsedge [6, 19]: 0
- Plant response rating, Nutsedge [6, 20]: 0
- Nutsedge plant response rating [6, 21]: 0
- Nutsedge plant response rating [6, 22]: 0
- Nutsedge plant response rating [6, 23]: 4
- Rice plant response rating ([7]; Postemergence (flood test species), Rate 125 g/ha, scale of 0 to 10 where 0 is no effect and 10 is complete control): 0
- Rice plant response rating ([7]; Rate 62 g/ha, Postemergence section, flood test species, scale of 0 to 10 where 0 is no effect and 10 is complete control): 0
- Plant response rating, Rice ([7]; Rate 250 g/ha, Postemergence (flood test), scale 0 to 10, 0 is no effect, 10 is complete control): 0
- Rice plant response rating [7, 29]: 0
- Plant response rating, Rice [7, 30]: 0
- Rice plant response rating [7, 31]: 0
- Rice plant response rating [7, 32]: 0
- Rice plant response rating ([7]; Rate 2000 g/ha, Pre-emergence (as headed), scale 0 to 10): 7
- Blackgrass plant response rating [8, 17]: 8
- Blackgrass plant response rating [8, 24]: 8
- Blackgrass plant response rating [8, 18]: 8
- Plant response rating, Blackgrass [8, 19]: 8
- Plant response rating, Blackgrass [8, 20]: 10
- Blackgrass plant response rating [8, 21]: 10
- Blackgrass plant response rating [8, 22]: 7
- Blackgrass plant response rating [8, 23]: 8
- Morningglory plant response rating [9, 17]: 3
- Morningglory plant response rating [9, 24]: 5
- Morningglory plant response rating [9, 18]: 0
- Plant response rating, Morningglory [9, 19]: 5
- Plant response rating, Morningglory [9, 20]: 6
- Morningglory plant response rating [9, 21]: 10
- Morningglory plant response rating [9, 22]: 3
- Morningglory plant response rating [9, 23]: 5
- Bedstraw plant response rating [10, 28]: 6
- Bedstraw plant response rating [10, 24]: 9
- Bedstraw plant response rating [10, 18]: 8
- Plant response rating, Bedstraw [10, 19]: 10
- Plant response rating, Bedstraw [10, 20]: 10
- Bedstraw plant response rating [10, 21]: 10
- Bedstraw plant response rating [10, 33]: 8
- Sugarbeets plant response rating [11, 17]: 4
- Sugarbeets plant response rating [11, 18]: 8
- Sugarbeets plant response rating (0 to 10 scale) [11, 25]: 10
- Plant response rating, Sugarbeets [11, 26]: 10
- Sugarbeets plant response rating [11, 21]: 10
- Sugarbeets plant response rating [11, 22]: 3
- Plant response rating, Sugarbeets [11, 27]: 6
- Sugarbeets plant response rating [11, 23]: 7
- Giant foxtail plant response rating [12, 17]: 9
- Giant foxtail plant response rating [12, 24]: 9
- Giant foxtail plant response rating [12, 18]: 10
- Plant response rating, Giant foxtail [12, 19]: 10
- Plant response rating, Giant foxtail [12, 20]: 10
- Giant foxtail plant response rating [12, 21]: 10
- Giant foxtail plant response rating [12, 22]: 8
- Giant foxtail plant response rating [12, 23]: 9
- B. signalgrass plant response rating [13, 28]: 7
- B. signalgrass plant response rating [13, 24]: 8
- B. signalgrass plant response rating [13, 18]: 9
- Plant response rating, B. signalgrass [13, 19]: 9
- Plant response rating, B. signalgrass [13, 20]: 10
- B. signalgrass plant response rating [13, 21]: 10
- B. signalgrass plant response rating [13, 33]: 7
- B. signalgrass plant response rating ([13]; Rate 500 g/ha, Postemergence, scale of 0 to 10 where 0 is no effect and 10 is complete control): 8
- Wheat plant response rating [14, 17]: 0
- Wheat plant response rating [14, 18]: 0
- Wheat plant response rating (0 to 10 scale) [14, 25]: 5
- Plant response rating, Wheat [14, 26]: 9
- Wheat plant response rating [14, 21]: 10
- Wheat plant response rating [14, 22]: 0
- Plant response rating, Wheat [14, 27]: 5
- Wheat plant response rating [14, 23]: 6
- Corn plant response rating [15, 17]: 0
- Corn plant response rating [15, 24]: 3
- Corn plant response rating [15, 18]: 0
- Plant response rating, Corn [15, 19]: 3
- Plant response rating, Corn [15, 20]: 7
- Corn plant response rating [15, 21]: 9
- Corn plant response rating [15, 22]: 0
- Corn plant response rating [15, 23]: 5
- Rape plant response rating [16, 17]: 3
- Rape plant response rating [16, 24]: 4
- Rape plant response rating [16, 18]: 7
- Plant response rating, Rape [16, 19]: 8
- Plant response rating, Rape [16, 20]: 9
- Rape plant response rating [16, 21]: 10
- Rape plant response rating [16, 22]: 3
- Rape plant response rating [16, 23]: 6
